Reference: ChEMBL document CHEMBL4808193, “[11]-Chaetoglobosins from Pseudeurotium bakeri Induce G2/M Cell Cycle Arrest and Apoptosis in Human Cancer Cells” (J Nat Prod, 2021)
Activity calls are given as the source filed them. The calls are words filed in the database; no cut-off is given here.

Experiments:
A-427 [1] = experiment: Cell cycle arrest in human A-427 cells assessed as accumulation at G2/M phase at 2.5 uM measured after 24 hrs by PI staining based flow cytometry (reference value: 19.81%); type: functional
A-427 [2] = experiment: Cell cycle arrest in human A-427 cells assessed as accumulation at G0/G1 phase at 2.5 uM measured after 24 hrs by PI staining based flow cytometry (reference value: 52.93%); type: functional
A-427 [3] = experiment: Induction of apoptosis in human A-427 cells assessed as late apoptotic cells at 5 uM measured after 24 hrs by Annexin V-FITC/propidium iodide staining based flow cytometric analysis (reference value: 3.18%); type: functional
MCF7 [4] = experiment: Cell cycle arrest in human MCF7 cells assessed as accumulation at G0/G1 phase at 5 uM measured after 24 hrs by PI staining based flow cytometry (reference value: 60.23%); type: functional
MCF7 [5] = experiment: Induction of apoptosis in human MCF7 cells assessed as early apoptotic cells at 7.5 uM measured after 24 hrs by Annexin V-FITC/propidium iodide staining based flow cytometric analysis (reference value: 4.82%); type: functional
A549 = experiment: Cytotoxicity against human A549 cells assessed as reduction in cell viability by MTT assay; type: functional, cell-based
HeLa = experiment: Cytotoxicity against human HeLa cells assessed as reduction in cell viability by MTT assay; type: functional, cell-based
MCF7 [6] = experiment: Cell cycle arrest in human MCF7 cells assessed as accumulation at G0/G1 phase at 7.5 uM measured after 24 hrs by PI staining based flow cytometry (reference value: 60.23%); type: functional
A-427 [7] = experiment: Cell cycle arrest in human A-427 cells assessed as accumulation at S phase at 5 uM measured after 24 hrs by PI staining based flow cytometry (reference value: 27.27%); type: functional
MCF7 [8] = experiment: Cell cycle arrest in human MCF7 cells assessed as accumulation at G2/M phase at 10 uM measured after 24 hrs by PI staining based flow cytometry (reference value: 15.13%); type: functional
MCF7 [9] = experiment: Cell cycle arrest in human MCF7 cells assessed as accumulation at S phase at 7.5 uM measured after 24 hrs by PI staining based flow cytometry (reference value: 24.64%; type: functional
A-427 [10] = experiment: Cell cycle arrest in human A-427 cells assessed as accumulation at G2/M phase at 3.75 uM measured after 24 hrs by PI staining based flow cytometry (reference value: 19.81%); type: functional
MCF7 [11] = experiment: Induction of apoptosis in human MCF7 cells assessed as late apoptotic cells at 10 uM measured after 24 hrs by Annexin V-FITC/propidium iodide staining based flow cytometric analysis (reference value: 1.11%); type: functional
A-427 [12] = experiment: Cytotoxicity against human A-427 cells assessed as reduction in cell viability by MTT assay; type: functional, cell-based
MCF7 [13] = experiment: Cell cycle arrest in human MCF7 cells assessed as accumulation at S phase at 5 uM measured after 24 hrs by PI staining based flow cytometry (reference value: 24.64%); type: functional
MCF7 [14] = experiment: Induction of apoptosis in human MCF7 cells assessed as early apoptotic cells at 5 uM measured after 24 hrs by Annexin V-FITC/propidium iodide staining based flow cytometric analysis (reference value: 4.82%); type: functional
MCF7 [15] = experiment: Induction of apoptosis in human MCF7 cells assessed as late apoptotic cells at 5 uM measured after 24 hrs by Annexin V-FITC/propidium iodide staining based flow cytometric analysis (reference value: 1.11%); type: functional
HCT-116 = experiment: Cytotoxicity against human HCT-116 cells assessed as reduction in cell viability by MTT assay; type: functional, cell-based
MCF7 [16] = experiment: Cell cycle arrest in human MCF7 cells assessed as accumulation at G0/G1 phase at 10 uM measured after 24 hrs by PI staining based flow cytometry (reference value: 60.23%); type: functional
MCF7 [17] = experiment: Induction of apoptosis in human MCF7 cells assessed as increase in cleaved PARP level at 5 to 10 uM incubated for 24 hrs by Western blot analysis; type: functional, cell-based; details: dose 5-10 µM
MCF7 [18] = experiment: Induction of apoptosis in human MCF7 cells assessed as increase in cleaved caspase 3 level at 5 to 10 uM incubated for 24 hrs by Western blot analysis; type: functional, cell-based; details: dose 5-10 µM
A-427 [19] = experiment: Cell cycle arrest in human A-427 cells assessed as accumulation at S phase at 2.5 uM measured after 24 hrs by PI staining based flow cytometry (reference value: 27.27%); type: functional
MCF7 [20] = experiment: Cell cycle arrest in human MCF7 cells assessed as accumulation at G2/M phase at 7.5 uM measured after 24 hrs by PI staining based flow cytometry (reference value: 15.13%); type: functional
L02 = experiment: Cytotoxicity against human L02 cells assessed as reduction in cell viability by MTT assay; type: cell-based
HepG2 = experiment: Cytotoxicity against human HepG2 cells assessed as reduction in cell viability by MTT assay; type: functional, cell-based
A-427 [21] = experiment: Cell cycle arrest in human A-427 cells assessed as accumulation at G0/G1 phase at 3.75 uM measured after 24 hrs by PI staining based flow cytometry (reference value: 52.93%); type: functional
MCF7 [22] = experiment: Induction of apoptosis in human MCF7 cells assessed as increase in cytochrome c level at 5 to 10 uM incubated for 24 hrs by Western blot analysis; type: functional, cell-based; details: dose 5-10 µM
A-427 [23] = experiment: Induction of apoptosis in human A-427 cells assessed as late apoptotic cells at 2.5 uM measured after 24 hrs by Annexin V-FITC/propidium iodide staining based flow cytometric analysis (reference value: 3.18%); type: functional
A-427 [24] = experiment: Cell cycle arrest in human A-427 cells assessed as accumulation at S phase at 3.75 uM measured after 24 hrs by PI staining based flow cytometry (reference value: 27.27%); type: functional
A-427 [25] = experiment: Induction of apoptosis in human A-427 cells assessed as late apoptotic cells at 3.75 uM measured after 24 hrs by Annexin V-FITC/propidium iodide staining based flow cytometric analysis (reference value: 3.18%); type: functional
MCF7 [26] = experiment: Cell cycle arrest in human MCF7 cells assessed as accumulation at S phase at 10 uM measured after 24 hrs by PI staining based flow cytometry (reference value: 24.64%); type: functional
A-427 [27] = experiment: Cell cycle arrest in human A-427 cells assessed as accumulation at G2/M phase at 5 uM measured after 24 hrs by PI staining based flow cytometry (reference value: 19.81%); type: functional
A-427 [28] = experiment: Induction of apoptosis in human A-427 cells assessed as early apoptotic cells at 2.5 uM measured after 24 hrs by Annexin V-FITC/propidium iodide staining based flow cytometric analysis (reference value: 4.98%); type: functional
MCF7 [29] = experiment: Induction of apoptosis in human MCF7 cells assessed as increase in PARP level at 5 to 10 uM incubated for 24 hrs by Western blot analysis; type: functional, cell-based; details: dose 5-10 µM
MCF7 [30] = experiment: Induction of apoptosis in human MCF7 cells assessed as late apoptotic cells at 7.5 uM measured after 24 hrs by Annexin V-FITC/propidium iodide staining based flow cytometric analysis (reference value: 1.11%); type: functional
MCF7 [31] = experiment: Cytotoxicity against human MCF7 cells assessed as reduction in cell viability by MTT assay; type: functional, cell-based
MCF7 [32] = experiment: Induction of apoptosis in human MCF7 cells assessed as increase in Bax protein level at 5 to 10 uM incubated for 24 hrs by Western blot analysis; type: functional, cell-based; details: dose 5-10 µM
A-427 [33] = experiment: Induction of apoptosis in human A-427 cells assessed as early apoptotic cells at 5 uM measured after 24 hrs by Annexin V-FITC/propidium iodide staining based flow cytometric analysis (reference value: 4.98%); type: functional
MCF7 [34] = experiment: Cell cycle arrest in human MCF7 cells assessed as accumulation at G2/M phase at 5 uM measured after 24 hrs by PI staining based flow cytometry (reference value: 15.13%); type: functional
MCF7 [35] = experiment: Induction of apoptosis in human MCF7 cells assessed as early apoptotic cells at 10 uM measured after 24 hrs by Annexin V-FITC/propidium iodide staining based flow cytometric analysis (reference value: 4.82%); type: functional
A-427 [36] = experiment: Induction of apoptosis in human A-427 cells assessed as early apoptotic cells at 3.75 uM measured after 24 hrs by Annexin V-FITC/propidium iodide staining based flow cytometric analysis (reference value: 4.98%); type: functional
HT-29 = experiment: Cytotoxicity against human HT-29 cells assessed as reduction in cell viability by MTT assay; type: functional, cell-based
A-427 [37] = experiment: Cell cycle arrest in human A-427 cells assessed as accumulation at G0/G1 phase at 5 uM measured after 24 hrs by PI staining based flow cytometry (reference value: 52.93%); type: functional

**Q.** What does the source list for CC1=C[C@@H]2/C=C/C[C@H](C)CC/C=C\C(=O)[C@]23C(=O)N[C@@H](Cc2c[nH]c4ccccc24)[C@@H]3[C@@H]1C?
**A.** Activity (A-427 [1]): 62.86%; Activity (A-427 [2]): 15.31%; Activity (A-427 [3]): 22.56%; Activity (MCF7 [4]): 44.64%; Activity (MCF7 [5]): 19.53%; IC50 (A549): 8.2 µM; IC50 (HeLa): 7.1 µM; Activity (MCF7 [6]): 32.82%; Activity (A-427 [7]): 17.84%; Activity (MCF7 [8]): 59.55%; Activity (MCF7 [9]): 18.43%; Activity (A-427 [10]): 67.84%; Activity (MCF7 [11]): 7.12%; IC50 (A-427 [12]): 4.7 µM; Activity (MCF7 [13]): 13.15%; Activity (MCF7 [14]): 11.86%; Activity (MCF7 [15]): 4.68%; IC50 (HCT-116): 8 µM; Activity (MCF7 [16]): 28.08%; Activity (MCF7 [17]): Active; Activity (MCF7 [18]): Active; Activity (A-427 [19]): 21.83%; Activity (MCF7 [20]): 48.75%; IC50 (L02): 44.1 µM; IC50 (HepG2): 9.1 µM; Activity (A-427 [21]): 13.13%; Activity (MCF7 [22]): Active; Activity (A-427 [23]): 3.07%; Activity (A-427 [24]): 19.02%; Activity (A-427 [25]): 24.36%; Activity (MCF7 [26]): 12.37%; Activity (A-427 [27]): 71.12%; Activity (A-427 [28]): 11.53%; Activity (MCF7 [29]): Active; Activity (MCF7 [30]): 6.76%; IC50 (MCF7 [31]): 6.2 µM; Activity (MCF7 [32]): Active; Activity (A-427 [33]): 20.14%; Activity (MCF7 [34]): 42.22%; Activity (MCF7 [35]): 25.44%; Activity (A-427 [36]): 15.57%; IC50 (HT-29): 6.7 µM; Activity (A-427 [37]): 11.04%
